From patent US7858630B2, “D3 and 5-HT2A receptor modulators” (Hoffmann-La Roche Inc., priority 2008, dated 2010) come the findings set out here.

Structures are written as SMILES. pKi: −log10 of the molar value.

Assay [1] concerns the target T1, human dopamine D2 receptor (Homo sapiens, UniProt P14416).
T1 construct: expressed in transfected cells; host or cells: HEK-293 EBNA cells, transient transfection; membrane preparation
The experiment in a line: Radioligand binding ([3H]-spiperone) to membranes of HEK-293 EBNA cells expressing human D2 receptor. As to conditions: human D2, 0.7 nM [3H]-spiperone, HEK-293 EBNA membranes, 1 h at RT. The procedure:
(§1) The ability of the compounds to bind to the 5-HT2A, D3 and D2 receptors was determined using radioligand binding to cloned receptors selectively expressed in HEK-293 EBNA cells.
(§2) Membrane Preparation for Human D2, Human D3 and Human 5-HT2A Receptors
(§3) HEK-293 EBNA cells were transiently transfected with expression plasmids encoding for the human D2 or D3 dopamine- or for the human 5-HT2A serotonin receptor, respectively. The cells were harvested 48 h post-transfection, washed three times with cold PBS and stored at −80° C. prior to use. The pellet was suspended in cold 50 mM Tris-HCl buffer containing 10 mM EDTA (pH 7.4) and homogenized with a Polytron (Kinematica AG, Basel, Switzerland) for 20-30 sec at 12.000 rpm. After centrifugation at 48.000×g for 30 min at 4° C., the pellet was resuspended in cold 10 mM Tris-HCl buffer containing 0.1 mM EDTA (pH 7.4), homogenized, and centrifuged as above. This pellet was further resuspended in a smaller volume of ice cold 10 mM Tris-HCl buffer containing 0.1 mM EDTA (pH 7.4) and homogenized with a Polytron for 20-30 sec at 12.000 rpm. The protein content of this homogenate was determined with the Bio-Rad (Bradford) Protein Assay (Biorad Laboratories GmbH, München, Germany) according to the instructions of the manufacturer using gamma globulin as the standard. This homogenate was stored at −80° C. in aliquots and thawed immediately prior to use.
(§4) Radioligand Binding Assay Conditions
(§5) Aliquots of membrane preparations were thawed at RT, resupended in assay buffer (D2, D3: 50 mM Tris-HCl, 120 mM NaCl, 5 mM MgCl2, 1 mM EDTA, 5 mM KCl, 1.5 mM CaCl2, pH=7.4; 5-HT2A: 50 mM Tris-HCl, 10 mM MgCl2, 1 mM EGTA, pH=7.4), homogenized with a Polytron for 20-30 sec at 12.000 rpm and adjusted to a final concentration of approximately 7.5 μg protein/well (D2, D3) and 15 μg protein/well (5-HT2A), respectively.
(§6) The binding affinity (Ki) of the compounds was determined using radioligand binding. Membranes were incubated in a total volume of 200 μl with a fixed concentration of radioligand (final concentration approximately 0.7 nM [^3H]-spiperone for D2, 0.5 nM [^3H]-spiperone for D3, and 1.1 nM [^3H]-ketanserin for 5-HT2A) and ten concentrations of test compound in ranging between 10 μM-0.1 nM for 1 h at RT. At the end of the incubation, the reaction mixtures were filtered on to unifilter 96-well white microplates with bonded GF/C filters (Packard BioScience, Zurich, Switzerland; preincubated for 1 h in 0.1% polyethylenimine (PEI) in assay buffer) with a Filtermate 196 harvester (Packard BioScience) and washed 3 times with cold assay buffer. The nonspecific binding was determined with equally composed reaction mixtures in the presence of 10 μM unlabelled spiperone. Per well 45 μl of Microscint 40 (Perkin Elmer, Schwerzenbach, Switzerland) was added, plates for sealed, shaken for 20 min and counted for 3 min on a Topcount Microplate Scintillation Counter (Canberra Packard SA, Zurich, Switzerland) with quenching correction.
(§7) The CPM value for each duplicate of a concentration of competing compound was averaged (y1), then the % specific binding was calculated according to the equation (((y1−non-specific)/(total binding-non-specific))×100). Graphs were plotted with the % specific binding using XLfit, a curve fitting program that iteratively plots the data using Levenburg Marquardt algorithm. The single site competition analysis equation used was y=A+((B−A)/(1+((x/C)^D))), where y is the % specific binding, A is the minimum y, B is the maximum y, C is the IC50, x is the log10 of the concentration of the competing compound and D is the slope of the curve (the Hill Coefficient). From these curves the IC50 (inhibition concentration at which 50% specific binding of the radioligand was displaced) and Hill coefficient were determined. […]

For assay [2], the target named is T2, human serotonin 5-HT2A receptor (Homo sapiens, UniProt P28223).
T2 construct: expressed in transfected cells; host or cells: HEK-293 EBNA cells, transient transfection; membrane preparation
The experiment in a line: Radioligand binding ([3H]-ketanserin) to membranes of HEK-293 EBNA cells expressing human 5-HT2A receptor. To be noted: 1.1 nM [3H]-ketanserin, HEK-293 EBNA membranes, 1 h at RT. The procedure:
as §1, §2, §3, §4, §5, §6, §7

The target in assay [3] is T3, human dopamine D3 receptor (Homo sapiens, UniProt P35462).
T3 construct: expressed in transfected cells; host or cells: HEK-293 EBNA cells, transient transfection; membrane preparation
The experiment in a line: Radioligand binding ([3H]-spiperone) to membranes of HEK-293 EBNA cells expressing human D3 receptor. To be noted: human D3, 0.5 nM [3H]-spiperone, HEK-293 EBNA membranes, 1 h at RT. How it is done:
as §1, §2, §3, §4, §5, §6, §7

T2 sequence (P28223 whole entry): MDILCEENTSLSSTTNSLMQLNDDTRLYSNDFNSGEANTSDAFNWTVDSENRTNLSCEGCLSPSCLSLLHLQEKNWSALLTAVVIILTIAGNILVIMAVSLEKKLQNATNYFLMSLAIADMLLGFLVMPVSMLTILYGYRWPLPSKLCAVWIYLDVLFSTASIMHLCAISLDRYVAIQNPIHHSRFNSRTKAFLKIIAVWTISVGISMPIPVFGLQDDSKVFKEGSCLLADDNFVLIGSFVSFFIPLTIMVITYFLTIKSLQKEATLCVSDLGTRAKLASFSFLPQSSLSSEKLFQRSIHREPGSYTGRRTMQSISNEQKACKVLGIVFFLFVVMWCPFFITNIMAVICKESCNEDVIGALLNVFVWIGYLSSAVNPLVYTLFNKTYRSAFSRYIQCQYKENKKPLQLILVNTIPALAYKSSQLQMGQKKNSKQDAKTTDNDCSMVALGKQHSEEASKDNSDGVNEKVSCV
T1 sequence (P14416 whole entry): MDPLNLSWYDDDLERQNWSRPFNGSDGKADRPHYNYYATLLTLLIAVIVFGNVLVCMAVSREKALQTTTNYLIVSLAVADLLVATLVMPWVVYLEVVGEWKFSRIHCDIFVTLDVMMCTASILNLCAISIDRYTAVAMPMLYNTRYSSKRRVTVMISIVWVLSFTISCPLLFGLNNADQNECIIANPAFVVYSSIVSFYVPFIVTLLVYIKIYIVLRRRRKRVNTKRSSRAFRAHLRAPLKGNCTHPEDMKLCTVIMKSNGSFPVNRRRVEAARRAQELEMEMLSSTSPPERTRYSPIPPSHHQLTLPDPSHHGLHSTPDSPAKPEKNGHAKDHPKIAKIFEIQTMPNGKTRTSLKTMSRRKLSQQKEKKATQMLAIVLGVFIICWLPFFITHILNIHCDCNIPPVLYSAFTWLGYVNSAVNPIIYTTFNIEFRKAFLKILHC
T3 sequence (P35462 whole entry): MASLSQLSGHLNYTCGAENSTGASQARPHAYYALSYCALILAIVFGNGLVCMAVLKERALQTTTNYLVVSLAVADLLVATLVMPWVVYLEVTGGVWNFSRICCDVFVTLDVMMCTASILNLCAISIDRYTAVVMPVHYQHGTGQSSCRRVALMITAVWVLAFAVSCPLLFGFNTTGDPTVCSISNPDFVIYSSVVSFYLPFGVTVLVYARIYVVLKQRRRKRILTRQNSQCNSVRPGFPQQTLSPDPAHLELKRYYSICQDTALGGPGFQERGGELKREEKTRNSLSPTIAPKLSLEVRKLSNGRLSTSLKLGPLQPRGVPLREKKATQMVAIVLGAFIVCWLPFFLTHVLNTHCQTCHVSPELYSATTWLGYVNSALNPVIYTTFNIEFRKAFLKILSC

What is called pKi is the negative decadic logarithm of the Ki, by convention in mol/L. For the compound `CC1(C)C[C@@H](CC(=O)N[C@H]2CC[C@H](CCN3CCN(c4noc5ccc(F)cc45)CC3)CC2)CCO1` [Example 22, 2-((S)-2,2-Dimethyl-tetrahydro-pyran-4-yl)-N-(4-{2-[4-(5-fluoro-benzo[d]isoxazol-3-yl)-piperazin-1-yl]-ethyl}-cyclohexyl)-acetamide], the negative-log Ki (pKi) was 5.99 in assay [1], 7.49 in assay [2] and 8.11 in assay [3].

Turning to `COCCC(=O)N[C@H]1CC[C@H](CCN2CCN(c3noc4ccc(C)cc34)CC2)CC1` [Example 104, 3-Methoxy-N-trans-(4-{2-[4-(5-methyl-benzo[d]isoxazol-3-yl)-piperazin-1-yl]-ethyl}-cyclohexyl)-propionamide], the pKi is 6.26 in assay [1], 7.68 in assay [2] and 8.59 in assay [3].

Consider `COCCC(=O)N[C@H]1CC[C@H](CCN2CCN(c3noc4ccccc34)CC2)CC1` [Example 1, N-trans-{4-[2-(4-benzo[d]isoxazol-3-yl-piperazin-1-yl)-ethyl]-cyclohexyl}-3-methoxy-propionamide], for which the pKi is 6.46 in assay [1], 8.31 in assay [2] and 7.92 in assay [3].

Turning to `O=C(CC1OCCCO1)N[C@H]1CC[C@H](CCN2CCN(c3noc4cc(F)c(F)cc34)CC2)CC1` [Example 69, N-trans-(4-{2-[4-(5,6-Difluoro-benzo[d]isoxazol-3-yl)-piperazin-1-yl]-ethyl}-cyclohexyl)-2-[1,3]dioxan-2-yl-acetamide], the pKi in assay [1] is 6.06; in assay [2], 8.20; in assay [3] it was 7.88.

Turning to `CC(C)OC1CCC(CC(=O)N[C@H]2CC[C@H](CCN3CCN(c4noc5cc(Cl)ccc45)CC3)CC2)CC1` (mixture of isomers) [Example 51, N-trans-(4-{2-[4-(6-Chloro-benzo[d]isoxazol-3-yl)-piperazin-1-yl]-ethyl}-cyclohexyl)-2-(4-isopropoxy-cyclohexyl)-acetamide], the figures for the pKi in assay [1], in assay [2] and in assay [3] were 5.52, 8.47 and 7.98, respectively.

`CC(=O)N[C@H]1CC[C@H](CCN2CCN(c3noc4cc(F)c(C)cc34)CC2)CC1` [Example 106, N-trans-(4-{2-[4-(6-Fluoro-5-methyl-benzo[d]isoxazol-3-yl)-piperazin-1-yl]-ethyl}-cyclohexyl)-acetamide]: the pKi in assay [1] was 5.62; in assay [2] it was 7.50; in assay [3], 8.04.

Turning to `COC[C@H]1C[C@H](CC(=O)N[C@H]2CC[C@H](CCN3CCN(c4noc5cc(Cl)ccc45)CC3)CC2)C1` [Example 48, N-trans-(4-{2-[4-(6-Chloro-benzo[d]isoxazol-3-yl)-piperazin-1-yl]-ethyl}-cyclohexyl)-2-trans-(3-methoxymethyl-cyclobutyl)-acetamide], the pKi in assay [1] is 6.15; in assay [2], 8.42; in assay [3], 8.00.

On to `O=C(CC(F)(F)F)N[C@H]1CC[C@H](CCN2CCN(c3noc4cc(Cl)ccc34)CC2)CC1` [Example 53, N-trans-(4-{2-[4-(6-Chloro-benzo[d]isoxazol-3-yl)-piperazin-1-yl]-ethyl}-cyclohexyl)-3,3,3-trifluoro-propionamide], for which the pKi in assay [1] is 6.76; in assay [2] it was 8.29; in assay [3], 8.56.

`Cc1ccc2c(N3CCN(CC[C@H]4CC[C@H](NC(=O)CC5COCCO5)CC4)CC3)noc2c1` (stereo partly drawn) [Example 102, 2-[1,4]Dioxan-2-yl-N-trans-(4-{2-[4-(6-methyl-benzo[d]isoxazol-3-yl)-piperazin-1-yl]-ethyl}-cyclohexyl)-acetamide]: the pKi is 6.48 in assay [1], 8.58 in assay [2] and 7.86 in assay [3].

Turning to `CCC(=O)N[C@H]1CC[C@H](CCN2CCN(c3noc4cc(Cl)c(F)cc34)CC2)CC1` [Example 70, N-trans-(4-{2-{4-(6-Chloro-5-fluoro-benzo[d]isoxazol-3-yl)-piperazin-1-yl]-ethyl}-cyclohexyl)-propionamide], the negative-log Ki (pKi) is 6.07 in assay [1], 7.17 in assay [2] and 8.15 in assay [3].
